Test results published in the supplement of paper PMC10307832.

Legend:
Test in all cases: relative viability (nuclei count vs DMSO), 5 days (fraction); higher = more cells survive
NCI-H1915 = tested on: NCI-H1915
How it was run: (§1)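 Lung cancer cell lines in 1536-well plates got either a single drug or a fixed anchor-drug dose together with five library-drug doses (not always all listed) in √10 steps, by pin tool, on the day after seeding. Nuclei were counted after 5 days, and relative viability is the treated-to-vehicle ratio of nuclei counts. Values are medians of duplicate plates.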

NCI-H1734 = tested on: NCI-H1734
How it was run: as §1

NCI-H661 = tested on: NCI-H661
How it was run: as §1

HCC-44 = tested on: HCC-44
How it was run: as §1

EKVX = tested on: EKVX
How it was run: as §1

HOP-62 = tested on: HOP-62
How it was run: as §1

NCI-H2087 = tested on: NCI-H2087
How it was run: as §1

LOU-NH91 = tested on: LOU-NH91
How it was run: as §1

SK-MES-1 = tested on: SK-MES-1
How it was run: as §1

NCI-H358 = tested on: NCI-H358
How it was run: as §1

ChaGo-K-1 = tested on: ChaGo-K-1
How it was run: as §1

HCC-78 = tested on: HCC-78
How it was run: as §1

HCC-366 = tested on: HCC-366
How it was run: as §1

EPLC-272H = tested on: EPLC-272H
How it was run: as §1

NCI-H2023 = tested on: NCI-H2023
How it was run: as §1

NCI-H1650 = tested on: NCI-H1650
How it was run: as §1

NCI-H3122 = tested on: NCI-H3122
How it was run: as §1

NCI-H1395 = tested on: NCI-H1395
How it was run: as §1

COR-L23 = tested on: COR-L23
How it was run: as §1

NCI-H650 = tested on: NCI-H650
How it was run: as §1

A-427 = tested on: A-427
How it was run: as §1

NCI-H596 = tested on: NCI-H596
How it was run: as §1

NCI-H838 = tested on: NCI-H838
How it was run: as §1

Compound: Cc1cnc(-c2cnc(NCCNc3ccc(C#N)cn3)nc2-c2ccc(Cl)cc2Cl)[nH]1 + COc1cccc2cc(-c3nc([C@H]4CC[C@H](C(=O)O)CC4)n4ncnc(N)c34)[nH]c12 [OSI-027] (partner 0.5 µM)
- relative viability (NCI-H1915; first compound 0.08 µM): 0.715
- relative viability (NCI-H1915; first compound 0.253 µM): 0.586
- relative viability (NCI-H1915; first compound 0.8 µM): 0.658
- relative viability (NCI-H1915; first compound 2.53 µM): 0.812
- relative viability (NCI-H1734; first compound 0.08 µM): 0.66
- relative viability (NCI-H1734; first compound 0.253 µM): 0.547
- relative viability (NCI-H1734; first compound 0.8 µM): 0.597
- relative viability (NCI-H1734; first compound 2.53 µM): 0.616
- relative viability (NCI-H661; first compound 0.08 µM): 0.77
- relative viability (NCI-H661; first compound 0.253 µM): 0.667
- relative viability (NCI-H661; first compound 0.8 µM): 0.743
- relative viability (NCI-H661; first compound 2.53 µM): 0.802
- relative viability (HCC-44; first compound 0.08 µM): 0.555
- relative viability (HCC-44; first compound 0.253 µM): 0.483
- relative viability (HCC-44; first compound 0.8 µM): 0.485
- relative viability (HCC-44; first compound 2.53 µM): 0.932
- relative viability (EKVX; first compound 0.08 µM): 0.768
- relative viability (EKVX; first compound 0.253 µM): 0.706
- relative viability (EKVX; first compound 0.8 µM): 0.589
- relative viability (EKVX; first compound 2.53 µM): 0.624
- relative viability (HOP-62; first compound 0.08 µM): 0.914
- relative viability (HOP-62; first compound 0.253 µM): 0.813
- relative viability (HOP-62; first compound 0.8 µM): 0.972
- relative viability (HOP-62; first compound 2.53 µM): 0.795
- relative viability (NCI-H2087; first compound 0.08 µM): 0.48
- relative viability (NCI-H2087; first compound 0.253 µM): 0.467
- relative viability (NCI-H2087; first compound 0.8 µM): 0.507
- relative viability (NCI-H2087; first compound 2.53 µM): 0.44
- relative viability (LOU-NH91; first compound 0.08 µM): 0.732
- relative viability (LOU-NH91; first compound 0.253 µM): 0.709
- relative viability (LOU-NH91; first compound 0.8 µM): 0.751
- relative viability (LOU-NH91; first compound 2.53 µM): 0.673
- relative viability (SK-MES-1; first compound 0.08 µM): 0.738
- relative viability (SK-MES-1; first compound 0.253 µM): 0.594
- relative viability (SK-MES-1; first compound 0.8 µM): 0.528
- relative viability (SK-MES-1; first compound 2.53 µM): 0.777
- relative viability (NCI-H358; first compound 0.08 µM): 0.843
- relative viability (NCI-H358; first compound 0.253 µM): 0.647
- relative viability (NCI-H358; first compound 0.8 µM): 0.771
- relative viability (NCI-H358; first compound 2.53 µM): 0.627
- relative viability (ChaGo-K-1; first compound 0.08 µM): 0.608
- relative viability (ChaGo-K-1; first compound 0.253 µM): 0.442
- relative viability (ChaGo-K-1; first compound 0.8 µM): 0.623
- relative viability (ChaGo-K-1; first compound 2.53 µM): 0.592
- relative viability (HCC-78; first compound 0.08 µM): 0.41
- relative viability (HCC-78; first compound 0.253 µM): 0.391
- relative viability (HCC-78; first compound 0.8 µM): 0.366
- relative viability (HCC-78; first compound 2.53 µM): 0.438
- relative viability (HCC-366; first compound 0.08 µM): 1.01
- relative viability (HCC-366; first compound 0.253 µM): 0.489
- relative viability (HCC-366; first compound 0.8 µM): 0.558
- relative viability (HCC-366; first compound 2.53 µM): 0.695
- relative viability (EPLC-272H; first compound 0.08 µM): 0.342
- relative viability (EPLC-272H; first compound 0.253 µM): 0.261
- relative viability (EPLC-272H; first compound 0.8 µM): 0.304
- relative viability (EPLC-272H; first compound 2.53 µM): 0.317
- relative viability (NCI-H2023; first compound 0.08 µM): 0.565
- relative viability (NCI-H2023; first compound 0.253 µM): 0.395
- relative viability (NCI-H2023; first compound 0.8 µM): 0.431
- relative viability (NCI-H2023; first compound 2.53 µM): 0.715
- relative viability (NCI-H1650; first compound 0.08 µM): 0.75
- relative viability (NCI-H1650; first compound 0.253 µM): 0.61
- relative viability (NCI-H1650; first compound 0.8 µM): 0.554
- relative viability (NCI-H1650; first compound 2.53 µM): 0.56
- relative viability (NCI-H3122; first compound 0.08 µM): 1.4
- relative viability (NCI-H3122; first compound 0.8 µM): 1.05
- relative viability (NCI-H3122; first compound 2.53 µM): 0.967
- relative viability (NCI-H1395; first compound 0.08 µM): 0.828
- relative viability (NCI-H1395; first compound 0.253 µM): 0.525
- relative viability (NCI-H1395; first compound 0.8 µM): 0.602
- relative viability (NCI-H1395; first compound 2.53 µM): 0.67
- relative viability (COR-L23; first compound 0.08 µM): 0.805
- relative viability (COR-L23; first compound 0.253 µM): 0.762
- relative viability (COR-L23; first compound 0.8 µM): 0.885
- relative viability (COR-L23; first compound 2.53 µM): 0.906
- relative viability (NCI-H650; first compound 0.08 µM): 0.571
- relative viability (NCI-H650; first compound 0.253 µM): 0.517
- relative viability (NCI-H650; first compound 0.8 µM): 0.582
- relative viability (NCI-H650; first compound 2.53 µM): 0.486
- relative viability (A-427; first compound 0.08 µM): 0.547
- relative viability (A-427; first compound 0.253 µM): 0.41
- relative viability (A-427; first compound 0.8 µM): 0.608
- relative viability (A-427; first compound 2.53 µM): 0.653
- relative viability (NCI-H596; first compound 0.08 µM): 0.846
- relative viability (NCI-H596; first compound 0.253 µM): 0.73
- relative viability (NCI-H596; first compound 0.8 µM): 0.483
- relative viability (NCI-H596; first compound 2.53 µM): 0.668
- relative viability (NCI-H838; first compound 0.08 µM): 0.433
- relative viability (NCI-H838; first compound 0.253 µM): 0.424
- relative viability (NCI-H838; first compound 0.8 µM): 0.46
- relative viability (NCI-H838; first compound 2.53 µM): 0.846
